Here are results for 9 molecules from US8609836B2, “4-aryl-2-anilino-pyrimidines” (Janssen Pharmaceutica NV, priority 2008, dated 2013).

One experiment relates to HCT-116. The experiment is described as follows: Cellular proliferation assay (Alamar blue), HCT-116. Type of experiment: cell-based. The conditions noted are these: Homo sapiens, 10% FCS, 72 hours with compound, Alamar blue 4 h. In short, it runs like this: (§1)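 Cells seeded 24 h without compound, then exposed to compounds for 72 h in 10% FCS at 37 °C, 5% CO2. Viability read by Alamar blue (resazurin 9 μg/ml) fluorescence at 544/590 nm after 6 h (U87-MG) or 24 h (A2780, MDA-MB-231) or 4 h (HCT-116) dye incubation; effect expressed relative to control cells.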

A further experiment deals with PLK2 (h) (Homo sapiens, UniProt Q9NYY3). The experiment can be described thus: PLK2 human kinase inhibition, SPA. It is filed as biochemical. The conditions noted are these: read-out: PLK2 pIC50 (converted). The method in brief: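 SPA read on Leadseeker: PLK2 (30 μg/ml) with 2 μM biotinylated peptide, 0.1 μM ATP plus 2 nM [γ-33P]ATP in 50 mM Hepes pH 8.0, 2 mM MnCl2, 1 mM DTT. Reaction ran 20 min at room temperature, then EDTA stop and streptavidin PVT beads.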

A further experiment concerns the target GSK3β (h) (Homo sapiens, UniProt P49841). The experiment can be described thus: GSK-3β human kinase inhibition, SPA. Type of experiment: biochemical. The conditions noted are these: read-out: GSK3b pIC50 (converted). In short, it runs like this:
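Scintillation proximity assay: GSK3β (1 μg/ml) with 1 μM biotinylated peptide, 1 μM ATP plus [γ-33P]ATP in Tris pH 7.4, MgCl2, DTT. 60 min at room temperature, stopped with EDTA and streptavidin PVT beads; phosphorylation read by Leadseeker imaging.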

For a further experiment, the target named is PLK4 (h) (Homo sapiens, UniProt O00444). The experiment can be described thus: PLK-4 human kinase inhibition, scintillation proximity assay (SPA). Type of experiment: biochemical. The conditions noted are these: read-out: PLK4 pIC50 (converted).
In a further experiment the test system is MDA-MB-231. The experiment is described as follows: Cellular proliferation assay (Alamar blue), MDA-MB-231. The conditions noted are these: Homo sapiens, 10% FCS, 72 hours with compound, Alamar blue 24 h, read-out: MDA/MB231 (cellular proliferation assay, Table 4) (converted). Type of experiment: cell-based. The method in brief:
as §1

The next experiment has as its target PLK1 T210D (h) (Homo sapiens, UniProt P53350, T210D). The experiment can be described thus: PLK1 human kinase inhibition, SPA. It is filed as biochemical. The conditions noted are these: read-out: PLK1 pIC50 (converted). In short, it runs like this:
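Radiometric SPA with PLK1 T210D (0.125 ng/ml) in 50 mM Hepes pH 8.0, 2 mM MnCl2, 1 mM DTT, 2 μM biotinylated peptide, 0.1 μM ATP plus 2 nM [γ-33P]ATP. 40 min at room temperature, EDTA stop. Phosphorylated substrate captured on streptavidin PVT beads, scintillation imaged.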

A further experiment concerns A2780. The experiment is described as follows: Cellular proliferation assay (Alamar blue), A2780. The conditions noted are these: Homo sapiens, 10% FCS, 72 hours with compound, Alamar blue 24 h, read-out: A2780 (cellular proliferation assay, Table 4) (converted). Type of experiment: cell-based. The method in brief: as §1
A further experiment relates to U87-MG. The experiment can be described thus: Cellular proliferation assay (Alamar blue), U87-MG. Type of experiment: cell-based. The conditions noted are these: Homo sapiens, U-87 MG; 10% FCS; 72 hours with compound; Alamar blue 6 h; read-out: U87-MG (cellular proliferation assay, Table 4) (converted). In short, it runs like this:
as §1

A further experiment deals with CDK1/CyclinB (h) (Homo sapiens, UniProt P06493). The experiment is described as follows: CDK1/CyclinB human kinase inhibition, Invitrogen's FRET assay (Z'lyte). Type of experiment: biochemical. The conditions noted are these: read-out: CDK1 pIC50 (converted). In short, it runs like this:
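Z'lyte FRET assay: human CDK1/CyclinB (0.2 μg/ml) with 2 μM Ser/Thr peptide 12 and 10 μM ATP in 50 mM Hepes pH 7.5, MgCl2, EGTA, Brij-35, 60 min at room temperature. Protease development 60 min, then emission ratio 460/538 nm read with excitation at 390 nm.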

Some results are limits rather than exact numbers.

CDK1/CyclinB (h), sequence (P06493 whole entry): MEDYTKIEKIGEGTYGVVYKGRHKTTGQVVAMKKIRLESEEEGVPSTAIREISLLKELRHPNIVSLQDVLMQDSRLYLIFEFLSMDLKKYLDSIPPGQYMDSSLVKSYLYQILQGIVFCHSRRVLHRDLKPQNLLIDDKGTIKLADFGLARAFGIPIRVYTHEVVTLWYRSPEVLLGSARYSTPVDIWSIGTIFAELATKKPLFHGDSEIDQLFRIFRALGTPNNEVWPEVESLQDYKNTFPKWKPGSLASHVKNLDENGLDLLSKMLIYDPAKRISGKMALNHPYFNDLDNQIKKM
CDK1/CyclinB (h), sequence (P14635 whole entry partner): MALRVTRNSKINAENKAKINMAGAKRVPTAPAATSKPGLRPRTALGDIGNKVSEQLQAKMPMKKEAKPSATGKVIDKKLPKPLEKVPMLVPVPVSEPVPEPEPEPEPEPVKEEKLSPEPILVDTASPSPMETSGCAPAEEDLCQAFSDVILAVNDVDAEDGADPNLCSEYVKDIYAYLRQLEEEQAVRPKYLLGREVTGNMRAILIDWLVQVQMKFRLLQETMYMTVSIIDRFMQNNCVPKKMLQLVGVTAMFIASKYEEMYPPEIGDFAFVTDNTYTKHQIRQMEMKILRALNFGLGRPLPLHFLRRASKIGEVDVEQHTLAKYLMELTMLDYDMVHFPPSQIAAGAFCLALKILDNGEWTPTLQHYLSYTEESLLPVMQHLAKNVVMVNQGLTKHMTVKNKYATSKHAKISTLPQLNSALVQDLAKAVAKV
PLK4 (h), sequence (O00444 whole entry): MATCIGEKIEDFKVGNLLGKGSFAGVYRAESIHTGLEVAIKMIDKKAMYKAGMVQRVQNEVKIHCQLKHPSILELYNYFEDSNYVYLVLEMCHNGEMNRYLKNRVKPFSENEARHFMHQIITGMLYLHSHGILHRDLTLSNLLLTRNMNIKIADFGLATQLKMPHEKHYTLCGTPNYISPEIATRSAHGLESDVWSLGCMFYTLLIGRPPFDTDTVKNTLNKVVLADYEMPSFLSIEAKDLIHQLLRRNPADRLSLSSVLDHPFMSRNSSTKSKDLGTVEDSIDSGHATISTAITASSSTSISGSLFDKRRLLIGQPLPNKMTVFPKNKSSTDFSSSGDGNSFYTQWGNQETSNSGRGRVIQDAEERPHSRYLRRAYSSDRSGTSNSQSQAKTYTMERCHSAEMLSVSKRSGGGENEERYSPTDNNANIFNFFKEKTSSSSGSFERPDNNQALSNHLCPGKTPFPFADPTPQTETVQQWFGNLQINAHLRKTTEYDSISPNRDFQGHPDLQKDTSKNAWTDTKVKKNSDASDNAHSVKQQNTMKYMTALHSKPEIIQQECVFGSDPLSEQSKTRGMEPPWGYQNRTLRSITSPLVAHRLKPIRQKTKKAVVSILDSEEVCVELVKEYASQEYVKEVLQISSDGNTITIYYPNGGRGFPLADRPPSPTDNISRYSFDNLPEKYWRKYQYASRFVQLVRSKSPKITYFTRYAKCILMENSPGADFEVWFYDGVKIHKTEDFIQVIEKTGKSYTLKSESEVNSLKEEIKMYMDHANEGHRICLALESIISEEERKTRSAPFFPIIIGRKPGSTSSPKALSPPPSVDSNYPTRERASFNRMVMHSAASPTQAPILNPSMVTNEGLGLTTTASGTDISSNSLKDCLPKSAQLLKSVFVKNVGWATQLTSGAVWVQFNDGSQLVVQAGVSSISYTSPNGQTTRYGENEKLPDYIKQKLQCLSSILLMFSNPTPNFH
PLK2 (h), sequence (Q9NYY3 whole entry): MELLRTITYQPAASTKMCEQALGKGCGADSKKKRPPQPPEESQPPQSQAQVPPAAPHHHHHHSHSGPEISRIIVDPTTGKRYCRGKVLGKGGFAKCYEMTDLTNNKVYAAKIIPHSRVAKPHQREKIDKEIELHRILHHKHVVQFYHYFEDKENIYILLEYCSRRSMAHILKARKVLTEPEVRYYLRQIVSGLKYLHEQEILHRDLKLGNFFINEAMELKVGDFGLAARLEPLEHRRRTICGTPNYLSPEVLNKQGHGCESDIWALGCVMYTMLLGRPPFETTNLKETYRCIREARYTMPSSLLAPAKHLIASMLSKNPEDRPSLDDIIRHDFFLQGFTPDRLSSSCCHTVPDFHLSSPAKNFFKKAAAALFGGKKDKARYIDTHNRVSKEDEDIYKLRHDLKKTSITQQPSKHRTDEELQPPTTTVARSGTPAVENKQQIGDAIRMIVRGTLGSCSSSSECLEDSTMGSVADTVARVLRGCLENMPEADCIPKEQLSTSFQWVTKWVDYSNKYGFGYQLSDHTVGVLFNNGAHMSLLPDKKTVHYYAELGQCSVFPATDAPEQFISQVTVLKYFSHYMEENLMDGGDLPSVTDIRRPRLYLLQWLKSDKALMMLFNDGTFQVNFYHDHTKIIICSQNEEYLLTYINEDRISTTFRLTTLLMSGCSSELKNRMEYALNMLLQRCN
PLK1 T210D (h), sequence (P53350 whole entry T210D): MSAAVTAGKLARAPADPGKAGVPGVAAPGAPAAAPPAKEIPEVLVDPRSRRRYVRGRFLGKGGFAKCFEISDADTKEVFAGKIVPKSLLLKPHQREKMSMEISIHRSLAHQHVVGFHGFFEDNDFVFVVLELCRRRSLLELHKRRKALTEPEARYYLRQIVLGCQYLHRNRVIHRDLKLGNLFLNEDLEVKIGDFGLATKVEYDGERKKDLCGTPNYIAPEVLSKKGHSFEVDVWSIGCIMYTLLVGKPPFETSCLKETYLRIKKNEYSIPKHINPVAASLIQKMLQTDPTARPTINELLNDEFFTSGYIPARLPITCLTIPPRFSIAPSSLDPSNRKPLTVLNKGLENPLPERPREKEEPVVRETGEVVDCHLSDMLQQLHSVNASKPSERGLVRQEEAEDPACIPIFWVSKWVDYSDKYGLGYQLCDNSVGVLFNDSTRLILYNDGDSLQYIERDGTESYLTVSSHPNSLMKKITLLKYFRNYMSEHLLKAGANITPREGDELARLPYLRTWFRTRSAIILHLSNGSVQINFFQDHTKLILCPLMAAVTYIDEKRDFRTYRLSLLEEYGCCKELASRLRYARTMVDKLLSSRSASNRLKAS
GSK3β (h), sequence (P49841 whole entry): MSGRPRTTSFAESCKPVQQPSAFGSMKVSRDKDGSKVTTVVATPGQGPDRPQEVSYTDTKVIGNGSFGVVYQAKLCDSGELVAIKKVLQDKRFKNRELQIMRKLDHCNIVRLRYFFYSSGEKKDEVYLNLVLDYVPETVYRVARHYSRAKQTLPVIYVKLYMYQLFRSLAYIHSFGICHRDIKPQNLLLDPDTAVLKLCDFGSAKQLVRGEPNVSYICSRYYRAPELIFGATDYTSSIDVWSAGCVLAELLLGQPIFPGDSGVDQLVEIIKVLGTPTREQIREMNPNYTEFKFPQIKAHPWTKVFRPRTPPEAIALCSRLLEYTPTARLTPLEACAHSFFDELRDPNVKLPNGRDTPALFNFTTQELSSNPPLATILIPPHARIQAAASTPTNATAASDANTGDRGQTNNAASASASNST

With `O=C1NCc2cccc(c2)-c2ccnc(n2)Nc2cc(ccc2Cl)CN[C@H]1Cc1ccccc1` [Compound 189], the IC50 in the experiment on HCT-116 was over 10 µM; on PLK2 (h) it was over 10 µM; on GSK3β (h), 6.92 µM; on PLK4 (h), over 10 µM; in the experiment on MDA-MB-231 it was over 10 µM; at PLK1 T210D (h) it was over 10 µM. Besides, the IC50 with A2780 is over 10 µM; in the experiment with U87-MG it was over 10 µM; at CDK1/CyclinB (h), 5.62 µM.
As to `O=C1NCc2cccc(c2)-c2ccnc(n2)Nc2cccc(c2)CN2CCC1CC2` [Compound 124], the IC50 in the experiment with HCT-116 is 2.88 µM; on PLK2 (h) it was over 10 µM; at GSK3β (h), 0.457 µM; at PLK4 (h) it was 8.71 µM; in the experiment with MDA-MB-231, over 10 µM; on PLK1 T210D (h) it was over 10 µM. Also, the IC50 was over 10 µM with A2780, 6.03 µM in the experiment with U87-MG and 0.372 µM at CDK1/CyclinB (h).
For `O=C1NCc2cccc(c2)-c2ccnc(n2)Nc2cc(cc(C(=O)N3CCOCC3)c2)CN2CCC[C@@H]12` [Compound 32], the IC50 was 5.13 µM in the experiment on HCT-116; over 10 µM on PLK2 (h); 0.186 µM at GSK3β (h); 0.178 µM on PLK4 (h); over 10 µM with MDA-MB-231; over 10 µM at PLK1 T210D (h). Moreover, the IC50 in the experiment on A2780 is over 10 µM; in the experiment on U87-MG, over 10 µM; on CDK1/CyclinB (h) it was 0.55 µM.
As for `O=C1NCc2cc(ccc2N2CCOCC2)Nc2nccc(n2)-c2cccc(c2)CCN2CCC[C@@H]12` [Compound 43], the IC50 is 1.78 µM in the experiment on HCT-116; over 10 µM at PLK2 (h); 0.186 µM at GSK3β (h); 0.363 µM on PLK4 (h); 5.62 µM in the experiment on MDA-MB-231; over 10 µM on PLK1 T210D (h). The values for the IC50 with A2780, in the experiment with U87-MG and on CDK1/CyclinB (h) were 2.51 µM, over 10 µM and 0.427 µM, respectively.
`C[C@@H]1NCc2cccc(c2)-c2ccnc(n2)Nc2ccc(N3CCOCC3)c(c2)CNC1=O` [Compound 101]: the IC50 in the experiment with HCT-116 is 2.69 µM; at PLK2 (h) it was over 10 µM; at GSK3β (h), 0.182 µM; on PLK4 (h) it was 1.82 µM; in the experiment on MDA-MB-231, 8.13 µM; at PLK1 T210D (h), over 10 µM. The results for the IC50 in the experiment with A2780, in the experiment on U87-MG and at CDK1/CyclinB (h) were 4.68 µM, 5.01 µM and over 10 µM, respectively.
With `C[C@@H]1NCCc2cccc(c2)-c2ccnc(n2)Nc2ccc(N3CCOCC3)c(c2)CNC1=O` [Compound 100], the IC50 in the experiment with HCT-116 is 0.724 µM; at PLK2 (h), over 10 µM; on GSK3β (h), 0.0759 µM; on PLK4 (h), 1.15 µM; with MDA-MB-231, 3.47 µM; at PLK1 T210D (h) it was over 10 µM. The IC50 in the experiment on A2780 was 3.02 µM; in the experiment on U87-MG, 0.603 µM; at CDK1/CyclinB (h), 0.151 µM.
For the molecule `COc1ccc2cc1CN(C)CCNC(=O)[C@@H]1CCCN1Cc1cc(cc(NC(C)C)c1)Nc1nccc-2n1` [Compound 165], the IC50 was 5.62 µM with HCT-116; over 10 µM at PLK2 (h); over 10 µM at GSK3β (h); 2.82 µM on PLK4 (h); over 10 µM in the experiment on MDA-MB-231; over 10 µM on PLK1 T210D (h). For the same molecule, the results for the IC50 in the experiment with A2780, in the experiment on U87-MG and at CDK1/CyclinB (h) were over 10 µM, 6.17 µM and over 10 µM, respectively.
With `O=C1NCc2cccc(c2)-c2ccnc(n2)Nc2ccc(C(=O)N3CCOCC3)c(c2)CN2CCC[C@@H]12` [Compound 26], the IC50 in the experiment on HCT-116 was 2.19 µM; on PLK2 (h) it was over 10 µM; at GSK3β (h), 0.0676 µM; at PLK4 (h), 0.0977 µM; with MDA-MB-231 it was 8.13 µM; at PLK1 T210D (h), over 10 µM. The figures for the IC50 in the experiment with A2780, with U87-MG and on CDK1/CyclinB (h) were 4.17 µM, over 10 µM and over 10 µM, respectively.
Take `COc1ccc2cc1CN(C)CCNC(=O)[C@@H]1CCCN1Cc1cc(C#N)cc(c1)Nc1nccc-2n1` [Compound 181]: the IC50 with HCT-116 was 4.9 µM; on PLK2 (h) it was over 10 µM; at GSK3β (h), over 10 µM; on PLK4 (h), over 10 µM; in the experiment on MDA-MB-231, over 10 µM; at PLK1 T210D (h) it was over 10 µM. The IC50 in the experiment with A2780 was over 10 µM; with U87-MG it was 9.12 µM; on CDK1/CyclinB (h), over 10 µM.
